Publication PMC12214536 (Nature Communications, 2025)
Like-named read-outs stand apart in the source and are kept apart here.

Legend:
CrzA:GFP = type: cell-based, Aspergillus fumigatus; conditions: 15 min
ΔsltA CrzA:GFP = type: cell-based, Aspergillus fumigatus; conditions: 15 min
[1] = tested on: A. fumigatus h2A::mRFP strain; experiment: h2A::mRFP fluorescence, apoptosis-like cell death marker; type: cell-based, Aspergillus fumigatus; conditions: H2O2 10 mM, COL 10 or 20 μM, CAS 0.03 or 0.2 μg/mL, or CAS with COL; 1 h
A. fumigatus conidia = experiment: Fungicidal activity: CFU on drug-free MM after 48 h with compound + CAS; type: cell-based, Aspergillus fumigatus; conditions: 0.2 μg/mL CAS, then CFU on compound-free medium, n = 3
[2] = tested on: A. fumigatus conidia in A549 cells; experiment: A549 human lung epithelial cells killing assay; type: cell-based, Aspergillus fumigatus
A. fumigatus = type: cell-based, Aspergillus fumigatus; conditions: 58 PKI at 20 µM alone or with COL 2.5 µM; 48 h, 37 °C
HepG2 liver cells = experiment: HepG2 cytotoxicity, Alamar blue; type: cell-based, human; conditions: COL 0, 20 and 40 µM + CAS 50 μg/mL; topotecan positive control; 48 h; n = 6
[3] = tested on: A. fumigatus mito::GFP germlings; type: cell-based, Aspergillus fumigatus
[4] = tested on: A. fumigatus wild-type mycelia; type: cell-based, Aspergillus fumigatus; conditions: n = 9
A. fumigatus ΔsltA = type: cell-based, Aspergillus fumigatus
A. fumigatus ΔcalA = type: cell-based, Aspergillus fumigatus
A. fumigatus ΔcrzA = type: cell-based, Aspergillus fumigatus
[5] = tested on: A. fumigatus (Af293) infection; type: in vivo, Caenorhabditis elegans
A. fumigatus ΔsltA ΔcrzA = type: cell-based, Aspergillus fumigatus
[6] = tested on: A. fumigatus wild-type (p)agsA::mluc; type: cell-based, Aspergillus fumigatus; conditions: CAS 0.05 and 0.125 µg/mL; COL 50 and 80 µM; or combination; 16 h at 35 °C
SltA = type: cell-based, Aspergillus fumigatus

With `[Ca+2].[Cl-].[Cl-]` [CaCl2] the “increase of CrzA:GFP translocation to the nucleus” value (CrzA:GFP) was “about 4 fold” and the “increase of CrzA:GFP localization to the nucleus” value (ΔsltA CrzA:GFP) was “about 4 fold”.

In the case of `OO` [H2O2], the “mRFP fluorescence of h2A::mRFP germlings” value [1] is reported as “complete loss of red fluorescence”.

In the case of `COC(=O)C1=C(C)NC(C)=C(C(=O)OC(C)(C)CN(C)CCC(c2ccccc2)c2ccccc2)C1c1cccc([N+](=O)[O-])c1` (centres unmarked) [LER, lercanidipine], the “lowest concentration with 100% fungicidal effect combined with CAS” value (A. fumigatus conidia) is reported as 3.95 µg/mL.

In the case of `C[C@@H](c1ncncc1F)[C@](O)(Cn1cncn1)c1ccc(F)cc1F` [VOR, voriconazole], the “A. fumigatus conidial killing” value ([2]; VOR 0.5 μg/mL, COL 20 and 40 μM, CAS 50 μg/mL, or COL + CAS, MOI 1:10, 24 h, n = 6) is reported as 85%.

With `Cn1cc(C2=C(c3cn(C4CCN(Cc5ccccn5)CC4)c4ccccc34)C(=O)NC2=O)c2ccccc21` [enzaustarin, enzastaurin] the “potentiation of COL activity (metabolic activity)” value (A. fumigatus) was “potentiated COL activity”.

For `CC[C@@]1(O)C(=O)OCc2c1cc1n(c2=O)Cc2cc3c(CN(C)C)c(O)ccc3nc2-1` [topotecan], the “toxicity to HepG2 cells (cell viability, Alamar blue)” value (HepG2 liver cells) was “very high toxicity”.

For caspofungin, the “germlings with mitochondrial fragmentation” value [3] was 35%, the “mRFP fluorescence of h2A::mRFP germlings” value [1] was “no differences in mRFP fluorescence” and the “reduction of total ATP compared with the control” value [4] was “about 25%”. For the same compound, the “growth of ΔsltA compared with the wild-type strain” value (A. fumigatus ΔsltA) was “comparable growth with the wild-type”, the “growth of ΔcalA compared to wild-type” value (A. fumigatus ΔcalA) was “significantly better growth” and the “growth of ΔcrzA compared to wild-type” value (A. fumigatus ΔcrzA) was “significantly better growth”. The “survival of infected animals over 3 days” value ([5]; 25 °C) was “significantly improved survival”.

For colistin, the “lowest concentration with 100% fungicidal effect combined with CAS” value (A. fumigatus conidia) was 10 µM, the “germlings with mitochondrial fragmentation” value [3] was 20% and the “mRFP fluorescence of h2A::mRFP germlings” value [1] was “no differences in mRFP fluorescence”. For the same compound, the “reduction of total ATP compared with the control” value [4] was “about 25%”, the “effect of Ca2+ addition on ΔsltA growth in the presence of COL” value (A. fumigatus ΔsltA) was “rescue ΔsltA growth” and the “growth of ΔsltA compared with the wild-type strain” value (A. fumigatus ΔsltA) was “significantly more sensitive to COL”. The “sensitivity of ΔsltA ΔcrzA compared with ΔsltA” value (A. fumigatus ΔsltA ΔcrzA) was “as sensitive to COL and COL with CAS as ΔsltA alone”, the “luminescence readings compared with no compound controls” value [6] was “about 2 fold” and the “increased expression of SltA compared to non-exposure” value (SltA) was “about 4 fold”. The “increase of CrzA:GFP translocation to the nucleus” value (CrzA:GFP) was “about 4 fold”, the “A. fumigatus conidial killing, COL alone vs combination” value ([2]; COL 80 µM vs COL 80 µM + CAS 50 µg/mL) was “same level of conidial killing than the combination of COL 80 µM + CAS 50 µg/mL” and the “survival of infected animals over 3 days” value ([5]; in vivo) was “no impact on C. elegans survival”.
